Laboratory results reported in PMC3858552, “The discovery of potent ribosomal S6 kinase inhibitors by high-throughput screening and structure-guided drug design” (Oncotarget, 2013).
Like-named read-outs stand apart in the source and are kept apart here.

Tests used:
S6K1 [1] = target: T1, S6K1 (Homo sapiens, UniProt P23443, T412E); assay: S6K1 DELFIA phosphorylation assay (IC50 of screening hits); assay type: biochemical; conditions: for LE (ligand efficiency): calculated using the mean IC50 values; for IC50: repurchased samples
T1 construct: The His-tagged kinase domain of S6K1 (residues 1-421, catalogue number 14-486) used in the HTS; His; purchased Millipore (Upstate/Millipore) 14-486
T1 sequence (P23443 1-421 T412E limits assumed): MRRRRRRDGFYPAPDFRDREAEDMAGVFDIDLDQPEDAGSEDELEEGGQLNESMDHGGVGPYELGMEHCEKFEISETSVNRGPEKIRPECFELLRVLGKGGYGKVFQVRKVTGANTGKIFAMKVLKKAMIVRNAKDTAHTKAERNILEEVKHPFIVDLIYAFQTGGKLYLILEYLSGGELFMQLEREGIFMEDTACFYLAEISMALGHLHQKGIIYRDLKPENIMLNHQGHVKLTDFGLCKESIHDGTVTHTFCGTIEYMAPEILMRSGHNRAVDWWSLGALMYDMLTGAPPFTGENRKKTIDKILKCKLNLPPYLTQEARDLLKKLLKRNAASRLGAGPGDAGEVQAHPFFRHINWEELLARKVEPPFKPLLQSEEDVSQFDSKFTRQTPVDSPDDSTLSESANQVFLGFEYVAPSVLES
Method: For primary screening hits, IC50 values were determined using a DELFIA® assay that monitors phosphorylation of a S6 peptide using a specific phospho-antibody. The enzyme reaction was carried out in 96 well polypropylene plates (#650261; Greiner Bio-One, Frickenhausen, Germany).
For each compound, a 10mM stock was diluted in water resulting in a 1250 μM solution in 12.5% (v/v) DMSO. Compounds were manually diluted 1 in 3 in 12.5% (v/v) DMSO to give an eight point dilution curve in duplicate. Finally, 5 μL compound solution or 12.5% (v/v) DMSO was transferred to the assay plate resulting in compound assay concentrations of 0.12-250 μM.
Subsequently, 20 μL of reaction reagents were added to the assay plate resulting in final assay concentrations of 1 μM S6 peptide (biotin-[…], synthesised by J. Metcalfe, ICR), 2 nM S6K1 (#14-486; Millipore, Billerica, MA, USA) and 30 μM ATP in assay buffer consisting of 40 mM HEPES pH 7.4, 10 mM MgCl2, 1 mM DTT and 0.02% (v/v) Tween 20. The reaction was incubated for an hour at 37 °C and stopped by the addition of 125 μL buffer comprising 40 mM EDTA, 0.05% (v/v) Tween 20, 0.1% (w/v) BSA in TBS (10x concentrate, Sigma-Aldrich, Gillingham, UK). A 100 μL aliquot of the reaction solution was transferred to a black neutravidin-coated plate (#15117; Perbio/Thermo Scientific, Cramlington, UK) and incubated for an hour on a Titertek shaker (Flow Laboratories, Sutton, UK) at room temperature. The plates were washed four times with WellWash4 wash buffer (Thermo Life Sciences Ltd, Basingstoke, UK) containing 25 mM Tris pH 8, 150 mM NaCl and 0.1% (v/v) Tween 20 and incubated for an hour with 100 μL of an antibody mix consisting of 0.05 nM of an anti-phospho S6 antibody (#2211; Cell Signalling Technology) and 0.18 μg/mL of an europium-labelled anti-rabbit IgG, (#AD0105; PerkinElmer Life Sciences, Waltham, MA, USA) diluted in DELFIA assay buffer (#4002-0010; PerkinElmer Life Sciences). The plates were washed a further four times with WellWash4 wash buffer (Thermo Life Sciences) before the addition of 100 μL Enhancement Solution (#4001-0010; PerkinElmer Life Sciences). The plate was read on an EnVision® 2103 Multilabel Reader (PerkinElmer Life Sciences) using a time-resolved measurement mode reading fluorescence at 615 nm. IC50 values were calculated from a four-parameter logistics fit of percentage inhibition versus concentration using GraphPad Prism 5 (GraphPad Software, Inc., CA, USA).

S6K1 [2] = target: S6K1 (Homo sapiens, UniProt P23443); assay: S6K1 mobility shift (microfluidic) assay; assay type: biochemical; conditions: for LE (ligand efficiency): calculated using the mean IC50 values; for activity against S6K1 (in words): benzimidazole / azabenzimidazole oxadiazoles
Sequence of S6K1 (Homo sapiens, UniProt P23443) (P23443 1-421): as the sequence (P23443 1-421 T412E limits assumed) above, with E412T counted along it
Method: For all compounds from the benzimidazole oxadiazole/azabenzimidazole oxadiazole series, the IC50 values were determined using a microfluidic assay that monitors the separation of a phosphorylated product from its substrate. […] For each compound, a 10 mM stock concentration in 100% DMSO was used.
IC50 values were calculated from a four-parameter logistics fit of percentage inhibition versus concentration using GraphPad Prism 5 (GraphPad Software, Inc., CA, USA).

AKT-Ser473 = assay: Electrochemiluminescent ELISA, AKT-Ser473 phosphorylation in intact cells; assay type: cell-based; conditions: Homo sapiens, electrochemoluminescent ELISA
Method: (§1) The human bladder carcinoma cell line HCV29 was obtained from Dr Richard Lamb (University of Liverpool, UK). This cell line has elevated mTORC1 and S6K activity through loss of TSC1 [46] as a result of a missense mutation and TSC2 loss that was confirmed by immunoblotting (data not shown). Cells were cultured in RPMI (Invitrogen, Life Technologies Ltd, Paisley, UK) containing 2 mmol/L glutamine (Invitrogen), and supplemented with non-essential amino acids (Invitrogen) 10% fetal bovine serum (PAA Laboratories Ltd, Yeovil, UK) in 5% CO2 in air at 37 °C. GI50 values (concentrations) causing 50% inhibition of proliferation for tumour cells were determined using a sulforhodamine B assay. Electrochemiluminescent immunoassays (Meso Scale Discovery, Rockville, MD, USA) measuring the inhibition of phosphorylation of RPS6-ser235/236, AKT-Thr308, AKT-Ser473, GSK3b-Ser9 and S6K-Ser421/424 were carried out as described in Raynaud et al..

RPS6-ser235/236 = assay: Electrochemiluminescent ELISA, RPS6 Ser235/236 phosphorylation in intact cells; assay type: cell-based; conditions: Homo sapiens, HCV-29; HCV29 intact cells, 2 hours exposure, n=3; read-out: EC50 for 50% inhibition of RPS6 Ser235/236 phosphorylation
Method: as §1

GSK3b-Ser9 = assay: Electrochemiluminescent ELISA, GSK3b-Ser9 phosphorylation in intact cells; assay type: cell-based; conditions: Homo sapiens, electrochemoluminescent ELISA
Method: as §1

AKT-Thr308 = assay: Electrochemiluminescent ELISA, AKT-Thr308 phosphorylation in intact cells; assay type: cell-based; conditions: Homo sapiens, electrochemoluminescent ELISA
Method: as §1

[3] = system: HCV29 human bladder carcinoma cells; assay: Sulforhodamine B proliferation assay (GI50); assay type: cell-based; conditions: HCV-29, 96 hours continuous exposure, read-out: GI50 (50% tumour growth inhibition)
Method: as §1

S6K-Ser421/424 = assay: Electrochemiluminescent ELISA, S6K-Ser421/424 phosphorylation in intact cells; assay type: cell-based; conditions: Homo sapiens, electrochemoluminescent ELISA
Method: as §1

S6K2 = S6K2 (Homo sapiens, UniProt Q9UBS0); assay: S6K2 inhibition; assay type: biochemical
Sequence of S6K2 (Q9UBS0 whole entry): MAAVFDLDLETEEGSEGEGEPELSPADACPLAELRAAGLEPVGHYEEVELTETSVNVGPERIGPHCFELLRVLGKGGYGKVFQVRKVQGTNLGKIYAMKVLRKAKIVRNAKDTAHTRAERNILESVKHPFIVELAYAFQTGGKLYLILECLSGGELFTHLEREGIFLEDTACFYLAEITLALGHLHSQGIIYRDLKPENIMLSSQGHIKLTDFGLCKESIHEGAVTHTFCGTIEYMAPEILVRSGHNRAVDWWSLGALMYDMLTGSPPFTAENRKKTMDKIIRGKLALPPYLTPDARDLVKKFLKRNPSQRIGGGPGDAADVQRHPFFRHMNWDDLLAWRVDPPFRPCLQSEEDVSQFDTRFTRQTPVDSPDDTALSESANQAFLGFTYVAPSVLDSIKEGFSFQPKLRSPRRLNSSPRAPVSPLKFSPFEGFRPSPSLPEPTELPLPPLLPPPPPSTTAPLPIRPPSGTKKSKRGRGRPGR

[4] = Table 2, confirmation DELFIA assay, mean ± standard error, duplicate
[5] = Table 3, confirmation DELFIA assay, mean ± standard error, duplicate
[6] = Table 4, mobility shift assay, mean ± SD triplicate, or duplicate/single measurement as footnoted, read-out: S6K1 IC50
[7] = Table 5, mobility shift assay, mean ± SD triplicate, or single measurement as footnoted, read-out: S6K1 IC50
[8] = Table 6, mobility shift assay, mean ± SD triplicate, or duplicate ± SE / single measurement as footnoted, read-out: S6K1 IC50

## O=c1c2ccccc2nc(-c2cccnc2)n1-c1ccc(Br)cn1 [Compound 7]
S6K1 [1]; Table 2
  LE (ligand efficiency): 0.38
S6K1 [1]; [4]
  IC50: 260 ± 150 nM

## Cc1ccc(-n2c(-c3ccccn3)nc3ccccc3c2=O)cc1 [Compound 8]
S6K1 [1]; Table 2
  LE (ligand efficiency): 0.33
S6K1 [1]; [4]
  IC50: 1550 ± 920 nM

## O=c1c2ccccc2nc(-c2ccccn2)n1-c1ccccc1 [Compound 9]
S6K1 [1]; Table 2
  LE (ligand efficiency): 0.33
S6K1 [1]; [4]
  IC50: 2970 ± 1530 nM

## CC(C)n1c(-c2nonc2N)nc2ccccc21 [Compound 10]
S6K1 [1]; Table 3
  LE (ligand efficiency): 0.50
S6K1 [1]; [5]
  IC50: 340 ± 140 nM

## C=CCn1c(-c2nonc2N)nc2ccccc21 [Compound 11]
S6K1 [1]; HTS hits
  IC50: 7000 nM
S6K1 [1]; Table 3
  LE (ligand efficiency): 0.40
S6K1 [1]; [5]
  IC50: 6980 ± 2070 nM

## Cn1c(-c2nonc2N)nc2ccccc21 [Compound 15a, 4-(1-Methyl-1H-benzoimidazol-2-yl)-1,2,5-oxadiazole-3-ylamine]
S6K1 [2]; Table 4
  LE (ligand efficiency): 0.58
S6K1 [2]; [6]
  IC50: 194 nM
S6K1 [2]
  activity against S6K1 (in words): about six-fold less active

## CCn1c(-c2nonc2N)nc2ccccc21 [Compound 15b, 4-(1-Ethyl-1H-benzoimidazol-2-yl)-1,2,5-oxadiazole-3-ylamine]
S6K1 [2]; Table 4
  LE (ligand efficiency): 0.59
S6K1 [2]; [6]
  IC50: 59.8 ± 32.4 nM

## Nc1nonc1-c1nc2ccccc2n1C1CC1 [Compound 15c, 4-(1-Cyclopropyl-1H-benzoimidazol-2-yl)-1,2,5-oxadiazole-3-ylamine]
S6K1 [2]; Table 4
  LE (ligand efficiency): 0.57
S6K1 [2]; [6]
  IC50: 36.6 ± 7 nM

## Nc1nonc1-c1nc2ccccc2n1Cc1ccccc1 [Compound 15d, 4-(1-Benzyl-1H-benzoimidazol-2-yl)-1,2,5-oxadiazole-3-ylamine]
S6K1 [2]; [6]
  IC50: > 100000 nM
S6K1 [2]
  activity against S6K1 (in words): complete loss of biochemical activity

## Nc1nonc1-c1nc2ccccc2n1CC1CC1 [Compound 15e, 4-(1-Cyclopropylmethyl-1H-benzoimidazol-2-yl)-1,2,5-oxadiazole-3-ylamine]
S6K1 [2]; Table 4
  LE (ligand efficiency): 0.56
S6K1 [2]; [6]
  IC50: 19.8 nM

## CC(=O)Nc1nonc1-c1nc2ccccc2n1C1CC1 [Compound 16, N-[4-(1-Cyclopropyl-1H-benzoimidazol->2-yl)-1,2,5-oxadiazole-3-yl]-acetamide]
S6K1 [2]; acetylated aminooxadiazole, read-out: S6K IC50
  IC50: > 100000 nM

## CCn1c(-c2nonc2N)nc2cc(Br)ccc21 [Compound 20a, 3-Amino-4-(5-bromo-1-ethyl-1H-benzimidazol-2-yl)-1,2,5-oxadiazole]
S6K1 [2]; Table 5
  LE (ligand efficiency): 0.55
S6K1 [2]; [7]
  IC50: 66.4 ± 5.6 nM

## CCn1c(-c2nonc2N)nc2cc(-c3ccccc3)ccc21 [Compound 20b, 3-Amino-4-(1-ethyl-5-phenyl-1H-benzimidazol-2-yl)-1,2,5-oxadiazole]
S6K1 [2]; Table 5
  LE (ligand efficiency): 0.35
S6K1 [2]; [7]
  IC50: 1640 ± 530 nM

## CCn1c(-c2nonc2N)nc2cc(C3CC3)ccc21 [Compound 20c, 3-Amino-4-(5-cyclopropyl-1-ethyl-1H-benzimidazol-2-yl)-1,2,5-oxadiazole]
S6K1 [2]; Table 5
  LE (ligand efficiency): 0.45
S6K1 [2]; [7]
  IC50: 334 ± 25.1 nM

## CCn1c(-c2nonc2N)nc2cc(OC)ccc21 [Compound 20d, 3-Amino-4-(1-ethyl-5-methoxy-1H-benzimidazol-2-yl)-1,2,5-oxadiazole]
S6K1 [2]; Table 5
  LE (ligand efficiency): 0.52
S6K1 [2]; [7]
  IC50: 63.4 nM

## CCn1c(-c2nonc2N)nc2cc(NC)ccc21 [Compound 20e, 3-Amino-4-(1-ethyl-5-methylamino-1H-benzimidazol-2-yl)-1,2,5-oxadiazole]
S6K1 [2]; Table 5
  LE (ligand efficiency): 0.50
S6K1 [2]; [7]
  IC50: 148 nM

## CCn1c(-c2nonc2N)nc2cccc(Br)c21 [Compound 20f, 3-Amino-4-(7-bromo-1-ethyl-1H-benzimidazol-2-yl)-1,2,5-oxadiazole]
S6K1 [2]; Table 5
  LE (ligand efficiency): 0.50
S6K1 [2]; [7]
  IC50: 303 ± 21 nM

## CCn1c(-c2nonc2N)nc2cccc(-c3cccnc3)c21 [Compound 20g, 3-Amino-4-(7-(3-pyridinyl)-1-ethyl-1H-benzimidazol-2-yl)-1,2,5-oxadiazole]
S6K1 [2]; Table 5
  LE (ligand efficiency): 0.39
S6K1 [2]; [7]
  IC50: 352 ± 173 nM

## CCn1c(-c2nonc2N)nc2cnc(Br)cc21 [Compound 21a, 3-Amino-4-(6-bromo-1-ethyl-1H-imidazo[4,5-c]pyridin-2-yl)-1,2,5-oxadiazole]
S6K1 [2]; Table 6
  LE (ligand efficiency): 0.59
S6K1 [2]; [8]
  IC50: 19.7 ± 2.6 nM

## CCn1c(-c2nonc2N)nc2cnc(Oc3cccc(S(C)(=O)=O)c3)cc21 [Compound 21b, 4-[1-Ethyl-6-(3-methanesulfonyl-phenoxy)-1H-imidazo[4,5-c]pyridin-2-yl]-1,2,5-oxadiazole-3-ylamine]
S6K1 [2]; Table 6
  LE (ligand efficiency): 0.34
S6K1 [2]; [8]
  IC50: 103 ± 23 nM

## CCn1c(-c2nonc2N)nc2cnc(-c3ccccc3)cc21 [Compound 21c, 4-(1-Ethyl-6-phenyl-1H-imidazo[4,5-c]pyridin-2-yl)-1,2,5-oxadiazole-3-ylamine]
S6K1 [2]; [8]
  IC50: > 100000 nM
S6K1 [2]
  activity against S6K1 (in words): abolished all affinity for S6K1

## CCn1c(-c2nonc2N)nc2cnc(N3CCOCC3)cc21 [Compound 21d, 4-(1-Ethyl-6-morpholin-4-yl-1H-imidazo[4,5-c]pyridin-2-yl)-1,2,5-oxadiazole-3-ylamine]
S6K1 [2]; Table 6
  LE (ligand efficiency): 0.42
S6K1 [2]; [8]
  IC50: 110 nM

## CCn1c(-c2nonc2N)nc2cnc(C)cc21 [Compound 21e, 4-(1-Ethyl-6-methyl-1H-imidazo[4,5-c]pyridin-2-yl)-1,2,5-oxadiazole-3-ylamine]
AKT-Ser473
  IC50: > 15000 nM
RPS6-ser235/236
  EC50: 9100 ± 1500 nM
GSK3b-Ser9
  IC50: > 15000 nM
AKT-Thr308
  IC50: > 15000 nM
S6K1 [2]
  ligand efficiency: 0.6
S6K1 [2]; Table 6
  LE (ligand efficiency): 0.60
S6K1 [2]; [8]
  IC50: 17.4 ± 6 nM
[3]
  GI50: 3500 nM
S6K-Ser421/424
  IC50: > 15000 nM
S6K2
  IC50: 300 ± 102 nM
